Results published in patent US5481013A, “Carboxylic acid derivatives” (Ciba-Geigy Corporation, priority 1992, dated 1996).

Experiments:
Format in all cases: in vivo
[1] = tested on: Nilaparvata lugens; assay: Activity against Nilaparvata lugens (spray on rice plants); details: 504 h, 400 ppm spray on rice plants, larvae in stages 2 and 3, evaluated after 21 days, read-out: percentage reduction in population (% activity)
Procedure: Rice plants are treated with a spray mixture prepared with an aqueous emulsion and comprising 400 ppm of the active ingredient. After the spray coating has dried on, the rice plants are populated with plant hopper larvae in stages 2 and 3. The test is evaluated after 21 days. The percentage reduction in population (% activity) is determined by comparing the number of surviving plant hoppers on the treated plants with the number of plant hoppers on the untreated plants. […] An activity of over 80% is shown, in particular, by compound Nos. 1.01, 2.01 to 2.03, 2.07, 2.08, 2.10 to 2.16, 2.20, 2.22, 2.23, 2.26, 3.01, 4.01 to 4.06, 4.20, 5.01 to 5.06, 5.08, 5.10 to 5.12, 5.15, 5.16 and 5.20 to 5.25.

[2] = tested on: Myzus persicae; assay: Systemic activity against Myzus persicae; details: roots of pea seedlings in 400 ppm spray mixture, 20° C., evaluated after 3 and 6 days, read-out: percentage reduction in population (% activity)
Procedure: Pea seedlings are infected with Myzus persicae, the roots of the plants are then placed into a spray mixture comprising 400 ppm of the active ingredient, and the plants are incubated at 20° C. The test is evaluated after 3 and 6 days. The percentage reduction in population (% activity) is determined by comparing the number of dead aphids on the treated plants with those on the untreated plants.

[3] = tested on: Dermanyssus gallinae; assay: Activity against Dermanyssus gallinae; details: 72 h, 10 ppm solution, mites in different development stages, after 3 days
Procedure: 2 to 3 ml of a solution comprising 10 ppm of active ingredient and approximately 200 mites in different development stages are placed into a glass container which is open at the top. The container is then sealed with a cottonwool ball, shaken for 10 minutes until the mites are wetted completely, and then briefly turned over so that the remaining test solution can be absorbed by the cottonwool. After 3 days, the mortality of the mites is determined by counting the dead individuals; it is given as a percentage.

[4] = tested on: Panonychus ulmi (OP- and carb.- resistant); assay: Activity against Panonychus ulmi (OP- and carb.- resistant); details: 336 h, 400 ppm spray on apple seedlings, evaluated after 14 days, read-out: percentage reduction in population (% activity)
Procedure: Apple seedlings are populated with adult females of Panonychus ulmi. After seven days, the infested plants are sprayed to drip point with an aqueous emulsion comprising 400 ppm of the test compound and grown in the greenhouse. The test is evaluated after 14 days. The percentage reduction in population (% activity) is determined by comparing the number of dead spider mites on the treated plants with those on the untreated plants. […] An activity of over 80% is shown, in particular, by compound Nos. 1.01, 2.01, 2.07, 2.08, 2.10, 2.12 to 2.16, 2.22, 2.23, 2.26, 3.01, 4.01, 4.02, 4.06, 5.01 to 5.03, 5.05, 5.06, 5.08, 5.10, 5.11, 5.15, 5.16 and 5.20 to 5.25.

[5] = tested on: Nephotettix cincticeps; assay: Systemic activity against Nephotettix cincticeps; details: 144 h, pots with rice plants in 400 ppm aqueous emulsion solution, larvae in stages 2 and 3, evaluated after 6 days, read-out: percentage reduction in population (% activity)
Procedure: Pots containing rice plants are placed into an aqueous emulsion solution comprising 400 ppm of the active ingredient. The rice plants are subsequently populated with larvae in stages 2 and 3. The test is evaluated after 6 days. The percentage reduction in population (% activity) is determined by comparing the number of leaf hoppers on the treated plants with those on the untreated plants.

O=C(CC=C(F)F)OCCOc1ccc(Oc2ccccc2)cc1 [Compound 1.01, 2-(4-phenoxyphenoxy)ethyl-4,4-difluorobut-3-enoate]
> 80%: activity at 400 ppm [1] | activity at 400 ppm [2] | mortality at 10 ppm [3] | activity at 400 ppm [4] | activity at 400 ppm [5]

O=C(CCCCCC=C(F)F)OCCOc1ccc(Oc2ccccc2)cc1 [Compound 3.01]
> 80%: activity at 400 ppm [1] | activity at 400 ppm [4] | activity at 400 ppm [5]
